Source: patent publication US7361743B2 (Pfizer Inc, priority 2004, dated 2008)
≈ marks a conversion by molar mass, not a printed value. Where two headings read alike, the source gives them in different places.

Experiments:
[1] = test system: Staphylococcus aureus Smith; assay: Efficacy in murine S. aureus septicemia; assay type: in vivo, ICR mice; details: for Efficacy in the murine S. aureus septicemia model relative to clindamycin: IV route of administration, compound given 1 hour after inoculation; for ED50: Staphylococcus aureus, murine S. aureus Smith septicemia, dosed 1 hour after inoculation, mortality 7 days
Experimental: (§1) Efficacy studies were performed in an S. aureus murine septicemia model according to models published elsewhere (Goldstein, B. P., G. Candiani, T. M. Arain, G. Romano, I. Ciciliato, M. Berti, M. Abbondi, R. Scotti, M. Mainini, F. Ripamonti, and et al. 1995. Antimicrobial activity of MDL 63,246, a new semisynthetic glycopeptide antibiotic Antimicrob. Agents Chemother. 39:1580-1588; Misiek, M., T. A. Pursiano, F. Leitner, and K. E. Price 1973. Microbiological properties of a new cephalosporin, BL-S 339:7-(phenylacetimidoyl-aminoacetamido)-3-(2-methyl-1,3,4-thiadiazol-5-ylthio methyl)ceph-3-em-4-carboxylic acid Antimicrob. Agents Chemother. 3:40-48).
Compounds were dissolved in 2% Tween 80 for oral dosing or 0.9% NaCl solution for intravenous dosing. Compounds were administered at 1 hour after bacterial inoculation. Vancomycin or ampicillin were used as controls.
(§2) Male or female ICR mice weighing 22±2 g from MDS Pharma Services were used for the evaluation. Food and water was given ad libitum. Groups of 6 mice weighing […] were used for the experiment. Mice were inoculated intraperitoneally with Staphylococcus aureus Smith at 4 104 CFU in 0.5 ml of Brain Heart Infusion Broth (Difco) containing 5% mucin (Sigma). Mortality was recorded once daily for 7 days following bacterial inoculation.
as §1, with “39:1580-1588.;” for “39:1580-1588;”, “339: 7-(phenylacetimidoyl-aminoacetamido)-3-(2-methyl-1,3,4-thiadiazol-5-ylthio” for “339:7-(phenylacetimidoyl-aminoacetamido)-3-(2-methyl-1,3,4-thiadiazol-5-ylthio”
as §2, with “mL” for “ml”

Haemophilus influenzae = assay: Susceptibility testing, NCCLS microdilution MIC; assay type: cell-based; details: Haemophilus influenzae, ATCC31517; H. influenzae ATCC 31517; Example A′; read-out: MIC H. influenzae
Enterococcus faecalis = assay: Susceptibility testing, NCCLS microdilution MIC; assay type: cell-based; details: Enterococcus faecalis, ATCC29212; E. faecalis ATCC 29212; Example A′; read-out: MIC E. faecalis
[2] = test system: E. coli transcription/translation (bacterial protein synthesis, E. coli S30 extract); assay: In vitro inhibition of E. coli transcription and translation assay (TT), cell-free; assay type: biochemical; details: for IC50: cell-free E. coli S30 extract; for In vitro inhibition of E. coli transcription and translation compared with literature azepine compound VIII(18): cell-free TT assay, comparison in words
Experimental: Inhibition of bacterial protein synthesis was assayed in a cell-free E. coli transcription/translation assay.
Stock solutions of compounds were prepared at 10 mg/mL in DMSO. The assay contained less or equal to 1% (v/v) final concentration of DMSO. Three-fold serial dilutions were prepared in assay buffer at 6-fold final concentration in 96 well microtiter plate.
All vials, tubes and microtiter plates are RNase free. The Mix was freshly prepared with 10 μl H2O, 10 μl AA-M, 10 μl AA-L, 80 μl Premix and 50 μl ES30 extract. The assay was performed in a 96-well plate. Five microliters of compounds at various concentrations (6-fold final assay concentration) were preincubated with 20 μl of the mix for 5 min at room temperature. The reaction started with addition of 5 μl of plasmid (˜0.1 mg/mL pGEMBGAL), and kept at 37° C. for 1 h followed by the addition of 150 μl of OPNG solution (4 mg/mL OPNG in 0.1M NaPi, pH 7.5, 1 mM MgCl2 and 2 mM DTT). 150 μl of the reaction was transferred to a ½-area plate and increase in absorption at OD420 nm was monitored for 10 min using a Spectramax plate reader (Molecular Devices). The slope of absorption change over time is corresponding to the pathway activity.
The E. coli S30 Extract for circular DNA kit was purchased from Promega. Original plasmid pGEMBGAL was obtained from Promega and amplified via Maxiprep in house. 2-Nitrophenyl β-D-galactopyranoside was obtained from Sigma. Clindamycin HCl (USP) was purchased from Spectrum.
The inhibition are expressed as percent of control activity (without inhibitor) which is calculated according to equation (1): Inhibition %=(compound slope-blank slope)/(control slope-blank slope)*100 (1)
All IC50s were determined by fitting the experimental data to equation (2) using software DeltaGraph (DeltaPoint Inc.): Y=Y0/(1+(X/IC50)[…])+c (2)
Where Y: activity at given inhibitor concentration; Y0: activity without inhibitor; X: inhibitor concentration; d: slope; c: constant.
Lincosamides inhibit bacterial growth through binding to the bacterial 50S ribosome, thus inhibiting peptide bond formation. The transcription/translation assay provides a screening tool to measure inhibition of bacterial protein synthesis pathway at the target level without the complication of differences in membrane permeability.

Staphylococcus aureus = assay: Susceptibility testing, NCCLS microdilution MIC; assay type: cell-based; details: ATCC25923, S. aureus ATCC 25923, Example A′, read-out: MIC S. aureus
Bacteroides fragilis = assay: Susceptibility testing, NCCLS microdilution MIC (anaerobe); assay type: cell-based; details: Bacteroides fragilis, ATCC25285; B. fragilis ATCC 25285; Example A′; read-out: MIC B. fragilis
[3] = intravenous administration, read-out: ED50, IV
[4] = oral administration, read-out: ED50, PO

Row | Compound | Efficacy in the murine S. aureus septicemia model relative to clindamycin ([1]; mice) | ED50 [1, 3] | ED50 [1, 4] | MIC (Haemophilus influenzae) | MIC (Enterococcus faecalis) | IC50 [2] | In vitro inhibition of E. coli transcription and translation compared with literature azepine compound VIII(18) [2] | MIC (Staphylococcus aureus) | MIC (Bacteroides fragilis) | Efficacy in the murine S. aureus septicemia model by oral route ([1]; oral route of administration, mice)
1 | CS[C@H]1O[C@H]([C@H](NC(=O)C2CC[C@H](CCCC#N)CCN2)[C@H](C)Cl)[C@H](O)[C@H](O)[C@H]1O (stereo in doubt) [Example 7′, 5-(3-Cyano-propyl)-azepane-2-carboxylic acid [2-chloro-1-(3,4,5-trihydroxy-6-methylsulfanyl-tetrahydro-pyran-2-yl)-propyl]-amide] | three to greater than five fold better | 0.29 mg/kg | > 30 mg/kg | 0.5 µg/mL (≈ 1.08 µM) | 0.25 µg/mL (≈ 0.539 µM) | 320 nM | markedly superior | 0.125 µg/mL (≈ 0.269 µM) | 4 µg/mL (≈ 8.62 µM) | –
2 | CS[C@H]1O[C@H]([C@H](NC(=O)C2CC[C@H](CCCF)CCN2)C(C)C)[C@H](O)[C@H](O)[C@H]1O (stereo partly drawn) [Example 6′] | three to greater than five fold better | 0.28 mg/kg | – | 2 µg/mL (≈ 4.58 µM) | 0.25 µg/mL (≈ 0.573 µM) | 760 nM | markedly superior | 0.06 µg/mL (≈ 0.137 µM) | 1 µg/mL (≈ 2.29 µM) | –
3 | COCCC[C@@H]1CCN[C@H](C(=O)N[C@@H]([C@H]2O[C@H](SC)[C@H](O)[C@@H](O)[C@H]2O)[C@H](C)Cl)CC1 [Example 13′, 5-(3-Methoxy-propyl)-azepane-2-carboxylic acid [2-chloro-1-(3,4,5-trihydroxy-6-methylsulfanyl-tetrahydro-pyran-2-yl)-propyl]-amide] | three to greater than five fold better | 0.28 mg/kg | 6.84 mg/kg | 1 µg/mL (≈ 2.13 µM) | 0.5 µg/mL (≈ 1.07 µM) | 830 nM | markedly superior | 0.06 µg/mL (≈ 0.128 µM) | 4 µg/mL (≈ 8.53 µM) | demonstrated the potential for use of the compounds as orally administered therapeutic agents
